Patent US10426751B2, “Allosteric activators for treatment of phenylketonuria” (MCMASTER UNIVERSITY, priority 2015, dated 2019)
Residue numbers refer to the chain shown, from its start. “Also recorded” adds a separate entry of the source.

What was measured:
[1] = test system: Plasmodium falciparum; conditions: read-out: IC50 (competitive inhibitor); cited from earlier work
[2] = biological target: T1, WT-PAH (Homo sapiens, UniProt P00439); assay: Chaperone (refolding) assay: PAH activity after dilution from 6.0 M to 0.5 M GndCl; format: biochemical; conditions: for chaperone activity upon refolding (in words): ligand 20 μM
T1 construct: made in house; the paragraph itself says 'eukaryotic cell cultures' (pMAL vector, Martinez laboratory, University of Bergen)
T1 sequence (P00439 1-452): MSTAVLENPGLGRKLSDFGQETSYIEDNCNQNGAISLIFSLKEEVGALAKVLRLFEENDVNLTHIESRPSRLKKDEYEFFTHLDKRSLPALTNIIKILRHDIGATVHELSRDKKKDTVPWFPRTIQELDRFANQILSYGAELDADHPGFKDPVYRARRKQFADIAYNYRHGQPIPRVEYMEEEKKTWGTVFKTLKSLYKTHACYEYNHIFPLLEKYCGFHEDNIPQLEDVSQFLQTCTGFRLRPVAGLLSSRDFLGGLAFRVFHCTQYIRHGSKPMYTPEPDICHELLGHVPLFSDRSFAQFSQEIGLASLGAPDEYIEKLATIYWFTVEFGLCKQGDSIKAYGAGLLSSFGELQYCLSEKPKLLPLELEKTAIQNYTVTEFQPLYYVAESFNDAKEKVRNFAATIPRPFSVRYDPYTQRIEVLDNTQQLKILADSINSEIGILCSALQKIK
Description: (§1) For instance, a recovery of 50% of residual enzyme activity was achieved without ligand when PAH was incubated in 8.0 M urea after its dilution to 0.5 M urea to trigger protein refolding. In order to further reduce enzyme reversibility, the recovery of PAH activity was subsequently assessed when it was incubated using 6.0 M GndCl for 10 min and subsequently diluted to 0.5 M GndCl in the presence or absence of screen-positive ligands (20 μM) in enzyme reaction buffer with PAH activity measurements performed by CE as described previously. […] Two lead compounds and several analogs of SA were subsequently tested using two different mutants of PAH (I65T and R261Q) without chemical denaturants after the two-tiered screening.

[3] = test system: beta-amyloid peptide; conditions: cited from earlier work
[4] = biological target: T1, WT-PAH; assay: Primary screen (READ): ligand-induced stabilization of PAH activity in 8 M urea, Tyr formation by CE-UV; format: biochemical; conditions: ligand 20 μM; for stabilization / enhancement effect on PAH activity (in words): denaturing conditions
Description: (§2) Tetrameric human phenylalanine hydroxylase (PAH) enzyme kinetic assays were performed off-line under standardized conditions prior to quantification of Tyr formation by CE with UV detection. Enzyme assays were performed by first mixing together Phe (1 mM), catalase (100 nM) and PAH (0.25 μM/subunit) in a reaction buffer (20 mM HEPES and 200 mM NaCl, pH 7.0) that were equilibrated at 25° C. for 4 min. Then, ferrous (Fe^2+) ammonium sulfate (100 μM) was added to the solution for 1 min and the reaction was subsequently initiated by addition of BH4 ([…]) with DTT (5 mM) using a total volume of 100 μL. The reaction mixture was then vortexed for 60 s followed by sonication for 2 min prior to centrifugation for 10 s at 4 g and storage in a refrigerator (+4° C.). An aliquot (20 μL) was withdrawn from the quenched enzyme reaction and placed in a micro vial containing Me-Tyr as IS (100 μM) prior to CE analysis. The stability of the quenched enzyme reaction was confirmed by intermittent analysis of PAH activity over 6 h at room temperature, and no significant changes in the Tyr/IS or Phe/Tyr response ratio were measured. Enzymatic reactions were performed for both WT-PAH and two PAH mutants by pre-equilibrating each ligand for 10 min prior to addition of ferrous ion and BH4/DDT as described in enzyme reaction protocol in order to assess for ligand-induced PAH inhibition or activation.
Unlike thermal stability assays that can induce protein aggregation, chemical denaturants are more suitable as perturbants to promote unfolding and enzyme inactivation while solubilizing multimeric proteins. In this context, restoration of enzyme activity upon denaturation (READ) was first introduced to characterize PCs that stabilize yet enhance the activity of a lysosomal enzyme, β-glucocerebrosidase (GCase). Herein, READ was modified, further optimized and validated for primary screening of PCs for the cytosolic enzyme (PAH) using a chemical library containing structurally unique compounds with drug-like activity. For instance, the primary screen was used to measure ligand-induced stabilization of PAH by extrinsic small molecules that impart greater resistance to urea unfolding as compared to ligand-free apo-enzyme conditions. PAH activity was first examined as a function of urea concentration (0 to 8 M) and pre-equilibration time (10 min to 2 hr) in order to determine optimum conditions where residual enzyme activity was largely attenuated below 10% due to protein unfolding. Protein unfolding was performed in triplicate offline with the enzyme reaction buffer (20 mM HEPES and 200 mM NaCl, pH 7.0) using tetrameric human PAH (1 μM and/or 0.1 μM) or mutant PAH (1 μM and/or 0.1 μM) incubated 10 min in 0 M or 8 M urea in the presence or absence of ligand (20 μM). Dose-response studies (0, 2.0 and 20 μM) were subsequently performed in triplicate on screen-positive compounds using re-synthesized ligands in order to further validate initial screen results. In all cases, quenched enzyme reactions were processed as described previously prior to CE analysis. PAH activity measurements based on Tyr formation at 8M urea with the presence or absence of PC were normalized to 0 M urea for each aliquot enzyme reaction to minimize long-term variation, which also enables direct comparison of the ligand-induced stabilization activity under denaturing conditions (8M urea) while confirming inhibition and activation effects for ligands under native conditions (0 M urea).

[5] = biological target: T1, WT-PAH; assay: PAH enzyme activity under native conditions (0 M urea), ligand-induced inhibition or activation; format: biochemical; conditions: ligand 20 μM
Description: as §2, with “An aliquot (20 μL) was withdrawn from the quenched enzyme reaction and placed in a micro vial containing Me-Tyr as IS (100 μM) prior to CE analysis.” left out, “Enzymatic reactions were performed for both WT-PAH and two PAH mutants by pre-equilibrating each ligand for 10 min prior to addition of ferrous ion and BH4/DDT as described in enzyme reaction protocol in order to assess for ligand-induced PAH inhibition or activation.” left out
Unlike thermal stability assays that can induce protein aggregation, chemical denaturants are more suitable as perturbants to promote unfolding and enzyme inactivation while solubilizing multimeric proteins. In this context, restoration of enzyme activity upon denaturation (READ) was first introduced to characterize PCs that stabilize yet enhance the activity of a lysosomal enzyme, β-glucocerebrosidase (GCase). […]

[6] = biological target: T2, R261Q PAH mutant (Homo sapiens, UniProt P00439, R261Q); assay: PKU-mutant activity enhancement without chemical denaturants, CE-UV; format: biochemical; conditions: ligand 20 μM, no denaturant
T2 construct: made in house; the paragraph itself says 'eukaryotic cell cultures' (pMAL vector)
T2 sequence (P00439 1-452 R261Q): T1 sequence (P00439 1-452) with R261Q
Description: Expression of recombinant human WT-PAH and two PAH mutants ([…]) as fusion protein with maltose-binding protein in […] using pMAL expression vector was performed by the Martinez laboratory at the University of Bergen as described in Svebak et al., Biochem. J., 1995, 306, 589-597. Briefly, purification of the fusion proteins expressed in the pMAL vector system was performed using affinity chromatography followed by size-exclusion chromatography to remove low molecular weight components. Subsequently, the fusion proteins were cleaved by the restriction protease factor Xa and then phosphorylated by cyclic adenosine monophosphate (cAMP)-dependent protein kinase. The two clinically relevant PAH mutants, I65T and R261Q comprise single-point mutations in the regulatory and catalytic domain, respectively which are associated with highly variable phenotypes ranging from mild to classical PKU. For instance, patients with R261Q genotypes are reported to have inconsistent responses to BH4 therapy. In this work, I65T and R261Q PAH mutants were measured to have residual catalytic activities of (35±1)% and (5±0.5)% relative to WT PAH under standardized conditions (i.e., enzyme concentrations, assay buffer etc.), respectively. Stock solutions of WT-PAH and PAH mutants were prepared in enzyme reaction buffer (20 mM HEPES pH 7.0, 200 mM NaCl), and divided into separate 10 μL aliquots in 0.5 mL sterilized centrifuge tubes prior to storage at −80° C. Note that all enzyme assays were performed on aliquots of frozen enzymes thawed slowly in the fridge prior to daily use.
as §2, §1

In the case of O=C(O)C1=CC(O)C(O)C(O)C1F (stereo not drawn) [6-fluoro-shikimate], the IC50 [1] is given as 15 µM.

With O=C(O)C1=CC(=O)[C@@H](O)[C@H](O)C1 [DSA, 3-dehydroshikimic acid] the “chaperone activity upon refolding (in words)” value [2] was “abolishes the chaperone activity”.

For CCOC(=O)C1=C[C@@H](O)[C@@H](O)[C@H](O)C1 [ESA, ethoxyshikimate], the “chaperone activity upon refolding (in words)” value [2] was “abolishes the chaperone activity”.

For O=C(O)c1cc(O)c(O)c(O)c1 [GA, gallic acid], the “oligomerization of beta-amyloid peptide (in words)” value [3] is listed as “inhibits oligomerization of beta-amyloid peptide” and the “chaperone activity upon refolding (in words)” value [2] is listed as “destabilizes and reduces the activity of WT-PAH upon refolding”.

With O=C(O)C1(O)C[C@@H](O)C(O)[C@H](O)C1 (stereo partly drawn) [QA, D-quinic acid] the “stabilization / enhancement effect on PAH activity (in words)” value (“stabilization / enhancement effect” below) [4] was “exhibits PAH stabilization” and the “chaperone activity upon refolding (in words)” value [2] was “significantly restored; also recorded: chaperone activity”.

For O=C(O)C1=C[C@@H](O)[C@@H](O)[C@H](O)C1 [SA, (3R,4S,5R)-3,4,5-trihydroxycyclohex-1-ene-1-carboxylic acid], the “PAH residual activity (% of WT-PAH)” value ([4]; 8 M urea, ligand-free enzyme (7±0.5) %) was 16%, the “chaperone activity upon refolding (in words)” value [2] was “significantly restored” and the “residual activity of WT-PAH after refolding” value ([2]; without ligand (7±0.5) %) was about 38±2%. For the same molecule, the “inhibition or activation of WT-PAH under native conditions (in words)” value [5] was “weak activation effects; also recorded: lack of SA inhibitory effects”, the “activity enhancement of R261Q PAH mutant” value [6] was 3-5 fold and the “activity enhancement of R261Q PAH mutant” value ([6]; listed as HCH) was 5 fold.

For Nc1c(Br)cc(Br)cc1CN[C@H]1CC[C@H](O)CC1 [ambroxol], the “stabilization / enhancement effect” value [4] was “no enhancement effect”.

In the case of COc1ccc([C@@H]2Sc3ccccc3N(CCN(C)C)C(=O)[C@@H]2OC(C)=O)cc1 [diltiazem], the “stabilization / enhancement effect” value [4] is reported as “no enhancement effect”.

For OCCN1CCN(CCCN2c3ccccc3Sc3ccc(C(F)(F)F)cc32)CC1 [fluphenazine], the “stabilization / enhancement effect” value [4] was “no enhancement effect”.

With OC[C@H]1CNC[C@@H](O)[C@@H]1O [isofagomine] the “stabilization / enhancement effect” value [4] was “no enhancement effect”.

With O[C@H]1[C@H](O)[C@@H](O)[C@H](O)[C@@H](O)[C@H]1O [myo-inositol] the “stabilization / enhancement effect” value [4] was “no significant activity”.
